Test results as given in PubChem BioAssay (NCI).
Where “and” joins values, the source holds several entries; their conditions need not be identical. Identical values can stand only once.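 Cultured in 96-well plates, cells were exposed to test compound for 48 hours across five concentrations. GI50 marks 50% less growth. TGI marks complete inhibition of growth.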

Legend:
Test in all cases: growth of human tumour cells (NCI), 48 h
SR leukemia = system: SR leukemia
LOX IMVI melanoma = system: LOX IMVI melanoma
SF-295 CNS = system: SF-295 CNS
TK-10 renal = system: TK-10 renal
NCI-H522 lung = system: NCI-H522 lung
SK-MEL-5 melanoma = system: SK-MEL-5 melanoma
ACHN renal = system: ACHN renal
SK-MEL-2 melanoma = system: SK-MEL-2 melanoma
OVCAR-5 ovarian = system: OVCAR-5 ovarian
HT29 colon = system: HT29 colon

SMILES | TGI (SR leukemia) [µM] | TGI (LOX IMVI melanoma) | TGI (SF-295 CNS) | TGI (TK-10 renal) | TGI (NCI-H522 lung) | TGI (SK-MEL-5 melanoma) | TGI (ACHN renal) | TGI (SK-MEL-2 melanoma) | TGI (OVCAR-5 ovarian) | TGI (HT29 colon) [µM] | GI50 (SR leukemia) [µM] | GI50 (LOX IMVI melanoma) [µM] | GI50 (SF-295 CNS) [µM] | GI50 (TK-10 renal) | GI50 (NCI-H522 lung) | GI50 (SK-MEL-5 melanoma) [µM] | GI50 (ACHN renal) | GI50 (SK-MEL-2 melanoma) | GI50 (OVCAR-5 ovarian) | GI50 (HT29 colon)
S=c1nc(-c2cccnc2)[nH][nH]1 | > 100 | > 100 µM | > 100 µM | > 100 µM | > 1 µM | > 100 µM | > 100 µM | > 100 µM | > 100 µM | > 100 |  |  |  |  |  |  |  |  |  | 
O=C1NC2(CN3CCC2CC3)C(=O)N1CN(Cc1ccccc1)c1ccccc1 (stereo not given) | 63.2 | > 100 µM | > 100 µM | > 100 µM | > 100 µM | > 100 µM | > 100 µM | > 100 µM | > 100 µM | > 100 |  |  |  |  |  |  |  |  |  | 
COc1ccc2c(c1)[n+]([O-])c(/C(C)=N/NC(=O)CC#N)c[n+]2[O-] | > 100 | > 100 µM | > 100 µM | > 100 µM | > 100 µM | > 100 µM | > 100 µM | > 100 µM | > 100 µM | > 100 |  |  |  |  |  |  |  |  |  | 
FCc1ncc(-c2ccc(C(F)(F)F)cc2)c(NC2CCCCCC2)n1 | > 10 | > 10 µM | > 10 µM | > 10 µM | > 10 µM | > 10 µM | > 10 µM | > 10 µM | > 10 µM | > 10 | > 10 | > 10 | > 10 | > 10 µM | > 10 µM | > 10 | > 10 µM | > 10 µM | > 10 µM | > 10 µM
COC(=O)CCC1=C(C)/C(=C/c2[nH]c(-c3ccc[nH]3)cc2OC)N=C1C | 88.7 | 0.612 µM | 3.64 µM | 9.22 µM | 1.78 µM | 0.248 µM | 3.75 µM | 0.813 µM | 12.9 µM | 2.03 | 0.317 | 0.17 | 0.833 | 2.34 µM | 0.413 µM | 0.0965 | 0.84 µM | 0.273 µM | 1.04 µM | 0.267 µM
CCN(CCNc1ccc(C)c2sc3ccccc3c(=O)c12)CC(C)(C)O | > 100 | 18.9 µM | 20.2 µM | 33.7 µM | 47.8 µM | 6.17 µM | 34.8 µM | 33 µM | 36.5 µM | 7.84 | 4.76 | 6.14 | 3.77 | 14.3 µM | 14.9 µM | 2.31 | 12.3 µM | 11.9 µM | 16.8 µM | 2.68 µM
c1nnc(NCNc2nncs2)s1 | > 100 | > 100 µM | > 100 µM | > 100 µM | > 100 µM | > 100 µM | > 100 µM | > 100 µM | > 100 µM | > 100 |  |  |  |  |  |  |  |  |  | 
CCOC(=O)[C@H]1Nc2ccc(OC)cc2C2c3ccccc3CC21 (stereo not given in full) | > 100 | > 100 µM | > 100 µM | > 100 µM | > 100 µM | > 100 µM | > 100 µM | > 100 µM | > 100 µM | > 100 |  |  |  |  |  |  |  |  |  | 
O=C1c2ccccc2-n2c1nc1ccccc1c2=O | > 100 | 25.1 µM | 18.8 µM | > 100 µM | 64.3 µM | 26 µM | 29.3 µM | 22.9 µM | 29.9 µM | 51.2 |  |  |  |  |  |  |  |  |  | 
CN[C@@H]1C[C@H]2O[C@@](C)([C@@H]1OC)n1c3ccccc3c3c4c(c5c6ccccc6n2c5c31)C(=O)N[C@@H]4O | 0.833 | 0.406 µM | 0.3 µM and 0.204 µM | 0.3 µM and 0.0914 µM | 0.197 µM and 0.382 µM | 0.766 µM |  | 0.245 µM and 0.123 µM | 0.298 µM and 0.24 µM |  |  |  | 0.0367 | 0.0195 µM and 0.0211 µM |  |  | 0.00526 µM and < 0.0151 µM | 0.0348 µM | 0.0226 µM | 0.0475 µM
O=C1CCCN1CC#CCN1CCCC1 | > 100 | > 100 µM | > 100 µM | > 100 µM | > 100 µM | > 100 µM | > 100 µM | > 100 µM | > 100 µM | > 100 | > 100 | > 100 | > 100 | > 100 µM | > 100 µM | > 100 | > 100 µM | > 100 µM | > 100 µM | > 100 µM
CNC(=S)N/N=C/c1ccc([N+](=O)[O-])s1 | > 10 | > 10 µM | > 10 µM | > 10 µM | > 10 µM | > 10 µM | > 10 µM | > 10 µM | > 10 µM | > 10 |  |  |  |  |  |  |  |  |  | 
CCOc1ccccc1NC(=O)CCc1nc(=S)[nH][nH]1 | > 100 | > 100 µM | > 100 µM | > 100 µM | > 100 µM | > 100 µM | > 100 µM | > 100 µM | > 100 µM | > 100 |  |  |  |  |  |  |  |  |  | 
CCCCCCN(CCCCCC)CC(O)c1ccc2c3c(cccc13)CC2 (stereo not given) | 13.8 | 14.6 µM | 12 µM | 23.2 µM | 13.2 µM | 17.9 µM | 23.5 µM | 24.7 µM | 23.9 µM | 13.2 | 3.32 | 3.42 | 1.17 | 10.7 µM | 3.14 µM | 4.74 | 10 µM | 11 µM | 10.8 µM | 1.18 µM
COc1cc(S(C)(=O)=O)ccc1Nc1nc2ccc(-c3ccc(NC(=O)[C@H](C)c4ccc(F)cc4)cc3)cn2n1 | > 100 | > 100 µM | > 100 µM | > 100 µM | > 100 µM | > 100 µM | > 100 µM | > 100 µM | > 100 µM | > 100 | 0.211 | 10.6 | > 100 | > 100 µM | > 100 µM | 0.4 | > 83.5 µM | > 100 µM | > 100 µM | 
COc1ccc(-c2cn[nH]c2-c2cc(OC)c3c(c2)OCCO3)cc1 | 14.2 | 15.2 µM | 12.1 µM | 48.4 µM | 0.164 µM | 8.08 µM | > 100 µM | 16.1 µM | > 100 µM | 11.2 | 0.0473 | 0.581 | 0.0735 | 0.457 µM | 0.0243 µM | 0.0717 | 1.26 µM | 0.0685 µM | 0.683 µM | 0.0421 µM
O=C1Nc2cccc3cc(NCC(O)CCl)cc1c23 (stereo not given) | 48 | > 100 µM | > 100 µM | > 100 µM | > 100 µM | > 100 µM | > 100 µM | 69.9 µM | > 100 µM | > 100 |  |  |  |  |  |  |  |  |  | 
CC[C@@]1(O)C(=O)OCc2c1cc1n(c2=O)Cc2cc3cc(N)ccc3nc2-1 | 0.0236 | 0.207 µM and 0.0665 µM | 0.0717 µM and 0.055 µM |  | 0.721 µM and 0.182 µM | 0.195 µM and 0.0366 µM | 0.108 µM and 0.013 µM | 1.58 µM | 0.109 µM and 0.627 µM |  | 0.0134 | 0.0202 | 0.00207 | 0.385 µM and 0.169 µM | 0.0261 µM and < 0.0112 µM | 0.0238 |  | 0.528 µM and 0.311 µM | 0.0195 µM and 0.11 µM | 0.0176 µM and 0.0225 µM
COc1ccc(Cl)cc1Nc1nc(C(F)(F)F)ccc1C(=O)N/N=C/c1cc(OC)c(OC)c(OC)c1 | 4.19 | 3.28 µM | 2.92 µM | 7.28 µM | 5.83 µM | 4.57 µM | 11.3 µM | 5.35 µM | 24.4 µM | 13.2 | 1.19 | 1.25 | 1.09 | 1.76 µM | 2.29 µM | 1.68 | 3.28 µM | 1.76 µM | 5.59 µM | 3.73 µM
